Source: patent publication US6358921B1, “Antimicrobial peptide compositions and method” (priority 1996, dated 2002)

Experiments:
[1] = tested on: P. aeruginosa H187; type: cell-based, Pseudomonas aeruginosa; details: H187
Excerpt: (§1) The following bacterial strains were utilized: Escherichia coli UB1005 (wt) and its antibiotic supersusceptible derivative DC2 (Clark, 1984); Excherichia coli SC9251 and its polymixin B rasistant mutant pmrA SC9252 (Peterson, et al., 1987) Pseudomonas aeruginosa H187 (wt) (Angus, et al., 1987) and its antibiotic-sensitive derivative H188 (Zimmerman, W, Antimicrob. Agents Chemother. 18: 94-100, 1980); methicillin sensitive Staphylococcus aureus K147 (Kreiswirth, et al., 1983); Staphylococcus aureus SAP0017, a methicillin resistant clinical isolate from Dr. A. Chow (University of British Columia); Bacillus subtilis, an environmental wt lab strain. Enterococcus faecalis are ATCC 29212 cells and Staphylococcus epidermidis was a clinical isolate from Dr. D. Speert (University of British Columbia). Antifungal activity was tested using a clinical lab isolate of Candida albicans. Salmonella typhinurium C57 and C610 (Fields, P.I., et al., Science 243: 1059-1062 (1989) Corynebacterium xerosis was an environmental isolate (University of British Columbia).
(§2) It is now apparent that agar-based assays severely underestimate antifungal activity as well as activity against gram negative microorganisms (Kondejewski, et al., 1996). Consequently, in the studies reported herein, a liquid-broth method was used to measure the antibiotic properties of the peptides. […] Briefly, cells were grown overnight at 37° C. in LB and diluted in the same medium. Serial dilutions of antibiotics were added to the microtitre plates in a volume of 100 μL followed by 10 μL of bacteria to give a final inoculum of 5×10^5 CFU/mL. Plates were incubated at 37° C. overnight and MICs determined as the lowest antibiotic concentration that inhibited growth.
(§3) The results from antimicrobial and hemolytic assays are combined to provide a “Therapeutic Index” (TI) for each peptide with respect to individual microorganisms. As reported herein, the TI is calculated as the hemolytic activity divided by the antimicrobial activity. The TI thus is a measure of specificity of the particular peptide for microbial membranes as opposed to human blood cell membranes. In the present studies, antimicrobial activities are reported as minimum inhibitory concentrations (MIC)—the lowest concentration of peptide (μg/ml) found to inhibit growth of the particular microbe. Hemolytic activity is reported as the concentration of peptide that effected complete lysis of blood cells after four hours. Thus, in the context of the present invention high TI values indicate microbial specificity and relative lack of toxicity.

[2] = tested on: P. aeruginosa H188; type: cell-based, Pseudomonas aeruginosa; details: H188
Excerpt: as §1
as §2, with “growth. […]” for “growth.”

[3] = tested on: E. coli UB1005; type: cell-based, Escherichia coli; details: UB1005
Excerpt: as §1
as §2, with “growth. […]” for “growth.”

[4] = tested on: E. coli DC2; type: cell-based, Escherichia coli; details: DC2
Excerpt: as §1, §2, §3

[5] = tested on: S. typhinurium C610; type: cell-based, Salmonella typhinurium
Excerpt: as §1
as §2, with “growth. […]” for “growth.”

[6] = tested on: S. aureus K147; type: cell-based, Staphylococcus aureus
Excerpt: as §1, §2, §3

[7] = tested on: S. aureus SAP0017; type: cell-based, Staphylococcus aureus
Excerpt: as §1, §2, §3

[8] = tested on: S. epidermidis; type: cell-based, Staphylococcus epidermidis
Excerpt: as §1
as §2, with “growth. […]” for “growth.”

[9] = tested on: B. subtilis; type: cell-based, Bacillus subtilis
Excerpt: as §1
as §2, with “growth. […]” for “growth.”

[10] = tested on: E. faecalis; type: cell-based, Enterococcus faecalis
Excerpt: as §1
as §2, with “growth. […]” for “growth.”

[11] = tested on: C. xeroses; type: cell-based, Corynebacterium xerosis
Excerpt: as §1
as §2, with “growth. […]” for “growth.”

[12] = Displacement of dansyl-polymyxin from LPS; type: binding, P. aeruginosa; details: read-out: LPS binding affinity: peptide concentration to displace 50% of dansyl-polymyxin B from LPS; Tables 1, 4, 7
Excerpt: In order to determine whether ring size affects the interaction between the peptide and bacterial membranes, we studied the interaction between the GS ring analogs and bacterial lipopolysaccharide (LPS). It has been shown previously that dansyl-polymixin (DPX) is a good probe for cationic binding sites on both purified LPS as well as whole bacterial cells (Example 8; Moore, et al., 1986; Sawyer, et al., 1988; Hancock, 1981). […] The LPS binding activity of various GS analogs was investigated, as discussed above.
Dansyl-polymixin (DPX) displacement from P. aeruginosa LPS was measured as described (Moore, et al., 1986). Briefly, peptides were titrated into cuvettes containing 3 μg of LPS per mL and 2.5 μM dansyl-polymixin (approximately 90% saturation of LPS binding sites) in 1 mL of 5 mM sodium HEPES buffer, pH 7.0, and the decrease in fluorescence recorded. A plot of the inverse of the percent inhibition as a function of the inverse of inhibitor concentration gave a value for I50, the inhibitor concentration resulting in 50% displacement of dansyl-polymixin from LPS (−1/× intercept).

[13] = tested on: C. Albicans; type: cell-based, Candida albicans
Excerpt: as §1
as §2, with “growth. […]” for “growth.”

[14] = tested on: S. typhinurium C587; type: cell-based, Salmonella typhinurium
Excerpt: as §1
as §2, with “growth. […]” for “growth.”

| Compound | Minimum Inhibitory Concentration (activity) [1] | Minimum Inhibitory Concentration (activity) [2] | Minimum Inhibitory Concentration (activity) [3] | Minimum Inhibitory Concentration (activity) [4] | Minimum Inhibitory Concentration (activity) [5] | Minimum Inhibitory Concentration (activity) [6] | Minimum Inhibitory Concentration (activity) [7] | Minimum Inhibitory Concentration (activity) [8] | Minimum Inhibitory Concentration (activity) [9] | Minimum Inhibitory Concentration (activity) [10] | Minimum Inhibitory Concentration (activity) [11] | IC50 [12] | Minimum Inhibitory Concentration (activity) [13] | Minimum Inhibitory Concentration (activity) [14] |
| --- | --- | --- | --- | --- | --- | --- | --- | --- | --- | --- | --- | --- | --- | --- |
| CC(C)C[C@@H]1NC(=O)[C@H](CCCCN)NC(=O)[C@H](C(C)C)NC(=O)[C@@H]2CCCN2C(=O)[C@@H](Cc2ccc(O)cc2)NC(=O)[C@H](CC(C)C)NC(=O)[C@H](CCCCN)NC(=O)[C@H](C(C)C)NC(=O)[C@H](CCCCN)NC(=O)[C@H](CC(C)C)NC(=O)[C@@H]2CCCN2C(=O)[C@@H](Cc2ccc(O)cc2)NC(=O)[C@H](C(C)C)NC(=O)[C@@H](CCCCN)NC1=O [GS14K4] | 25 µg/mL | 3.1 µg/mL | 6.2 µg/mL | 3.1 µg/mL | 4 µg/mL | 100 µg/mL | 50 µg/mL | 2 µg/mL | 25 µg/mL | 1.5 µg/mL | 1.5 µg/mL | 93 µM |  |  |
| CC(C)C[C@@H]1NC(=O)[C@H](CCCCN)NC(=O)[C@H](C(C)C)NC(=O)[C@@H]2CCCN2C(=O)[C@@H](Cc2ccc(O)cc2)NC(=O)[C@H](CC(C)C)NC(=O)[C@@H](CCCCN)NC(=O)[C@H](C(C)C)NC(=O)[C@H](CCCCN)NC(=O)[C@H](CC(C)C)NC(=O)[C@@H]2CCCN2C(=O)[C@@H](Cc2ccc(O)cc2)NC(=O)[C@H](C(C)C)NC(=O)[C@H](CCCCN)NC1=O [GS14K11] | 37 µg/mL | 5 µg/mL | 6.2 µg/mL | 3.1 µg/mL | 6.2 µg/mL | 25 µg/mL | 25 µg/mL | 3.1 µg/mL | 25 µg/mL | 1.5 µg/mL | 0.8 µg/mL | 50 µM | 6.2 µg/mL |  |
| CC(C)C[C@@H]1NC(=O)[C@H](CCCCN)NC(=O)[C@H](C(C)C)NC(=O)[C@@H]2CCCN2C(=O)[C@@H](Cc2ccc(O)cc2)NC(=O)[C@H](CC(C)C)NC(=O)[C@H](CCCCN)NC(=O)[C@H](C(C)C)NC(=O)[C@H](CCCCN)NC(=O)[C@@H](CC(C)C)NC(=O)[C@@H]2CCCN2C(=O)[C@@H](Cc2ccc(O)cc2)NC(=O)[C@H](C(C)C)NC(=O)[C@H](CCCCN)NC1=O [GS14L8] | 37 µg/mL | 3.1 µg/mL | 6.2 µg/mL | 3.1 µg/mL | 6.2 µg/mL | 50 µg/mL | 25 µg/mL | 3.1 µg/mL |  | 1.5 µg/mL | 0.8 µg/mL | 62 µM | 6.2 µg/mL |  |
| CC(C)C[C@@H]1NC(=O)[C@H](CCCCN)NC(=O)[C@H](C(C)C)NC(=O)[C@@H]2CCCN2C(=O)[C@@H](Cc2ccc(O)cc2)NC(=O)[C@H](CC(C)C)NC(=O)[C@H](CCCCN)NC(=O)[C@H](C(C)C)NC(=O)[C@H](CCCCN)NC(=O)[C@H](CC(C)C)NC(=O)[C@@H]2CCCN2C(=O)[C@@H](Cc2ccc(O)cc2)NC(=O)[C@@H](C(C)C)NC(=O)[C@H](CCCCN)NC1=O [GS14V5] | 100 µg/mL | 62 µg/mL | 15 µg/mL | 3.1 µg/mL |  | 100 µg/mL | 50 µg/mL | 3.1 µg/mL | 200 µg/mL | 1.5 µg/mL |  | 33 µM | 6.2 µg/mL | 100 µg/mL |
| CC(C)C[C@@H]1NC(=O)[C@H](CCCCN)NC(=O)[C@H](C(C)C)NC(=O)[C@@H]2CCCN2C(=O)[C@@H](Cc2ccc(O)cc2)NC(=O)[C@H](CC(C)C)NC(=O)[C@H](CCCCN)NC(=O)[C@@H](C(C)C)NC(=O)[C@H](CCCCN)NC(=O)[C@H](CC(C)C)NC(=O)[C@@H]2CCCN2C(=O)[C@@H](Cc2ccc(O)cc2)NC(=O)[C@H](C(C)C)NC(=O)[C@H](CCCCN)NC1=O [GS14V10] | >200 µg/mL | 200 µg/mL | 200 µg/mL | 3.1 µg/mL | 200 µg/mL | 200 µg/mL | 50 µg/mL | 3.1 µg/mL |  | 1.5 µg/mL | 0.8 µg/mL | 18 µM | 17 µg/mL | >200 µg/mL |
| CC(C)C[C@@H]1NC(=O)[C@H](CCCCN)NC(=O)[C@H](C(C)C)NC(=O)[C@@H]2CCCN2C(=O)[C@@H](Cc2ccc(O)cc2)NC(=O)[C@H](CC(C)C)NC(=O)[C@H](CCCCN)NC(=O)[C@H](C(C)C)NC(=O)[C@H](CCCCN)NC(=O)[C@H](CC(C)C)NC(=O)[C@@H]2CCCN2C(=O)[C@H](Cc2ccc(O)cc2)NC(=O)[C@H](C(C)C)NC(=O)[C@H](CCCCN)NC1=O [GS14Y6] | 200 µg/mL | 50 µg/mL | 50 µg/mL | 3.1 µg/mL | 100 µg/mL | >200 µg/mL | >200 µg/mL | 6.2 µg/mL | >200 µg/mL | 3.1 µg/mL | 1 µg/mL | 20 µM |  | >200 µg/mL |
